The target of this assay is T1, human SGLT2 (Homo sapiens, UniProt P31639).
T1 construct: expressed in transfected cells; host or cells: CHOK1 (Chinese hamster ovary) cells under Geneticin selection
T1 sequence (P31639 1-672): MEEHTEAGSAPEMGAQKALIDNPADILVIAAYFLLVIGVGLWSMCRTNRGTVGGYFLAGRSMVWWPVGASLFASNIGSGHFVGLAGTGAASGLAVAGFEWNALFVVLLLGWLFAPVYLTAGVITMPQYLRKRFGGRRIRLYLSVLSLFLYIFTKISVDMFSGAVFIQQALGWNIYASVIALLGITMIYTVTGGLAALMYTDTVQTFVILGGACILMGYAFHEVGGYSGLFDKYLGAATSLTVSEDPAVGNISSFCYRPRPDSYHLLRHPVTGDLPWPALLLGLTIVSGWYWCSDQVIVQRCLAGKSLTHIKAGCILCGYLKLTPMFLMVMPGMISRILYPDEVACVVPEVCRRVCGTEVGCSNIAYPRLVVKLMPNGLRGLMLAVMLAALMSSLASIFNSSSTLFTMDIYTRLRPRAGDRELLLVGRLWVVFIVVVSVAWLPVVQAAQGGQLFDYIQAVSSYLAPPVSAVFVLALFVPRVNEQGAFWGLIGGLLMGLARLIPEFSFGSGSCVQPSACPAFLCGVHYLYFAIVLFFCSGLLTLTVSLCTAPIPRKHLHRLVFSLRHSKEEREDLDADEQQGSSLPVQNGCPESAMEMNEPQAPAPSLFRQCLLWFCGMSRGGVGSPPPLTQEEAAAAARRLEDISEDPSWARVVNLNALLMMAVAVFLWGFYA
In words: 14C-AMG uptake in CHOK1 cells expressing human SGLT2. The format is cell-based. The conditions noted are these: 14C-AMG 0.5 mM, 2 hours at 37° C., read-out: Human SGLT2 inhibition IC50. The procedure: CHOK1 cells expressing human SGLT2 were seeded in 96-well white walled plates at a density of 50,000 cells/well in F-12 nutrient mixture (Ham's F-12) containing 10% fetal bovine serum, 400 μg/ml Geneticin, 50 units/ml sodium penicillin G (Gibco-BRL) and 50 μg/ml streptomycin sulfate. After 2 days of culture at 37° C. in a humidified atmosphere containing 5% CO2, cells were washed once with the assay buffer (137 mM NaCl, 5 mM KCl, 1 mM CaCl2, 1 mM MgCl2, 50 mM Hepes, and 20 mM Tris, pH 7.4) and incubated with 80 μl of the buffer containing test compounds for 10 min at 37° C. Test compounds were dissolved in DMSO. The final concentration of DMSO was 0.5%. The transport reaction was initiated by addition of 20 μl [^14C]-methyl-α-D-glucopyranoside (^14C-AMG, 0.08 uCi per well) solution (final concentration, 0.5 mM). After incubation for 2 hours at 37° C., the uptake was stopped by aspiration of the incubation mixture, the cells were washed three times with ice-cold PBS. Then, cells were solubilized with 0.3 N NaOH and scintalin was added for determination of radioactivity by a liquid scintillation counter. Nonspecific AMG uptake was defined as that which occurred in the presence of 100 μM of phlorizin, a specific inhibitor of sodium-dependent glucose cotransporter. Specific uptake was normalized for the protein concentrations measured by the method of Bradford. […]

pIC50: −log10 of the molar value.

Turning to `Cc1ccc(C2OC(C(=O)O)C(O)C(O)C2O)cc1Cc1ccc(-c2ccc(F)cc2)s1` (stereo not shown) [Compound 1, 6-{3-[5-(4-Fluoro-phenyl)-thiophen-2-ylmethyl]-4-methyl-phenyl}-3,4,5-trihydroxy-tetrahydro-pyran-2-carboxylic acid], the pIC50 (in general, the IC50 on a negative log10 scale, so that one unit is a factor of ten) was 5.96.

For the origin of these results see patent publication US7666845B2, “Compounds having inhibitory activity against sodium-dependent glucose transporter” (Janssen Pharmaceutica N.V., priority 2006, dated 2010).
